Laboratory results as given in ChEMBL document CHEMBL3763131, “Anion inhibition studies of the β-carbonic anhydrase from the pathogenic bacterium Vibrio cholerae” (Bioorg Med Chem Lett, 2016).
Where “and” joins values, the source holds several entries; their conditions need not be identical. Equal values may be shown once.

Experiments:
[1] = Inhibition of Vibrio cholerae alpha-carbonic anhydrase preincubated for 15 mins by stopped-flow CO2 hydration assay
Carbonic anhydrase 1 = Carbonic anhydrase 1 (Homo sapiens, UniProt P00915); assay: Inhibition of human carbonic anhydrase 1 preincubated for 15 mins by stopped-flow CO2 hydration assay
Sequence of Carbonic anhydrase 1 (P00915 whole entry): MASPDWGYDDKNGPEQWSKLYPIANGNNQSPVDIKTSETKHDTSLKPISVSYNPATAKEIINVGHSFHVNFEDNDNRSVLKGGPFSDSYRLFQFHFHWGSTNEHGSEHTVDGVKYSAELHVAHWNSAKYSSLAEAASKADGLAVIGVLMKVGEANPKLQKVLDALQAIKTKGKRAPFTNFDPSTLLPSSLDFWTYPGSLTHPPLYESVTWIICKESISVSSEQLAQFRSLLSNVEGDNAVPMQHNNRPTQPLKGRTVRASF

S [HYDROGEN SULFIDE]
Ki [1]: 74 µM

I [IODIDE]
Ki [1]: 9730 µM

O=C(O)O [BICARBONATE]
Ki [1]: 4640 µM and 5130 µM

NS(N)(=O)=O [SULFAMIDE]
Ki [1]: 8 µM

O=[N+]([O-])O
Ki [1]: 670 µM

O=S(=O)(O)NS(=O)(=O)O
Ki [1]: 88200 µM

O=P(O)(O)OP(=O)(O)O [PYROPHOSPHORIC ACID]
Ki [1]: 2960 µM

S=C(S)S [CARBONOTRITHIOIC ACID]
Ki [1]: 88 µM

NS(=O)(=O)O [SULFAMATE]
Ki [1]: 31 µM

Cl [HYDROCHLORIC ACID]
Ki [1]: 930 µM

Br [BROMIDE]
Ki [1]: 28000 µM

O=S(O)O [SULFUROUS ACID]
Ki [1]: 68 µM

N#CO [CYANATE]
Ki [1]: 75 µM

O=S(=O)(O)O [SULFURIC ACID]
Ki [1]: 850 µM

CCN(CC)C(=S)S [DITIOCARB]
Ki [1]: 43 µM

[N-]=[N+]=[N-]
Ki [1]: 760 µM

O=[Se](=O)(O)O [SELENIC ACID]
Ki [1]: 60800 µM

N=C=[Se] [ISOSELENOCYANATE]
Ki (Carbonic anhydrase 1): 8.5 µM
Ki [1]: 760 µM

OB(O)c1ccccc1 [PHENYLBORONIC ACID]
Ki [1]: 7 µM

[O-][Cl+3]([O-])([O-])O [PERCHLORATE]
Ki [1]: > 200000 µM

N=C=S [ISOTHIOCYANATE]
Ki [1]: 820 µM

O=[Te](=O)(O)O
Ki [1]: 14500 µM

O=NO [NITROUS ACID]
Ki [1]: 34100 µM

F[B-](F)(F)F
Ki (Carbonic anhydrase 1): > 200000 µM
Ki [1]: > 200000 µM

O=[As](O)(O)c1ccccc1 [PHENYLARSONIC ACID]
Ki [1]: 23 µM

F [FLUORIDE ION]
Ki [1]: 800 µM

O=S(=O)(O)OOS(=O)(=O)O
Ki [1]: 84100 µM
